Results as given in patent US6541672B1, “Derivatives of benzilidine cyclohexanone, benzilidine cyclopentanone, and benzilidine acetone and their synthesis” (Faculty of Pharmacy, The University of Gadjah Mada, priority 1997, dated 2003).

How the values were obtained:
B. subtilis = test: Anti bacterial and antifungal activity test; assay type: cell-based; conditions: in DMSO, 37° C. 24 hours
Experimental: (§1) ANTI BATERIAL AND ANTIFUNGAL ACTIVITY TEST
(§2) Sterile medium of Bacto Muller Hinton was melted at 45-50° C. and poured (25 ml) into a sterile Petric dish (100 mm in diameter), and was left at room temperature for 1 hour. The sterility was checked by overnight incubation (37° C.). The media was immediately used. The microorganism used was gram positive and gram negative. The drug solutions of 0.1, 0.2 and 0.4% in DMSO were used. Incubation was performed at 37° C. for 24 hours.

C. albicans = test: Anti bacterial and antifungal activity test; assay type: cell-based; conditions: in DMSO, 37° C. 24 hours
Experimental: as §1, §2

S. Aureus = test: Anti bacterial and antifungal activity test; assay type: cell-based; conditions: in DMSO, 37° C. 24 hours
Experimental: as §1, §2

S. pheumoniae = test: Anti bacterial and antifungal activity test; assay type: cell-based, S. pneumoniae; conditions: in DMSO, 37° C. 24 hours
Experimental: as §1, §2

carragenin rat paw edema = test: Anti inflammatory activity test (Winter, 1962), carragenin rat paw edema; assay type: in vivo, Wistar rats; conditions: peroral in CMC 1%, inhibition of rat paw edema volume, doses 10-80 mg/kg bw
Description: ANTI INFLAMMATORY ACTIVITY TEST (WINTER, 1962)
Carragenin was used as an inflammatory agent. The volum inhibition of rat paw edema following peroral administration of various doses of the sysnthetic compounds in 1% CMC in comparison to that of control was used to determine the activity of the compounds. In order to evaluate the anti-inflammatory of each compound. Wistar rats (body weight ranging from 200-250 g) were used and divided randomly into 5 groups: one group served as or control and 4 groups were treatment groups. The control group received the vehicle CMC; (Carboxy Methyl Cellulose […]), while the treatment groups received the synthetic compound per orally in CMC 1%. Doses of 10, 20, 40 and 80 mg/kg bw were given to the animals. Where one hour later the animals received a subplantar injection of 0.05 ml of carragenin suspension in saline solution (NaCi 0.9%)- The volumes of rat paw edema were measured immediately and every half an hour following the subplantar injection for 5 hours.

[1] = tested on: lipid peroxidation (microsome); test: Anti oxidation test (Haenen and Bast, 1983), lipid peroxidation; assay type: biochemical; conditions: malondialdehyde (TBA), microsome 2 mg protein/ml, 37° C., absorbance 535 nm
Experimental: ANTI OXIDATION […], 1983) Anti oxidative activity (lipid peroxidation) was determined by measuring the reactive form of thiobarbituric acid, i.e. malondialdehyde. The synthetic compound with final concentration of 0.5; 1.0; 2.0; 4.0 microM was put into glass tubes. […] The mixture was pre-incubated at 37° C. for 5 minutes. Lipid peroxidation was initiated with the addition of ferro sulphate (0.5 ml, 10 microN) and incubated at 37° C. for 5 minutes, the reaction was stopped by addition of aliquot (0.3 ml) to the mixture of TCA, TBA, and BHT (2 ml) in cold. After heating (80° C.) for 15 minutes and centrifugation (15 minutes), absorbance was read at 535 nm.

Row | SMILES | Minimum Inhibition Concentration (B. subtilis) [%] | Minimum Inhibition Concentration (C. albicans) [%] | Minimum Inhibition Concentration (S. Aureus) [%] | Minimum Inhibition Concentration (S. pheumoniae) [%] | ED 50 (carragenin rat paw edema) [mg/kg.bb] | IC50 [1] [nM]
1 | O=C(C=Cc1cc(Cl)c(O)c(Cl)c1)C=Cc1cc(Cl)c(O)c(Cl)c1 [GVT-6, 1,5-bis (4-hydroxy-3,5-dichlorophenyl)-1,4-pentadiene-3-one] | 0.30 | 0.25 | 0.25 | 0.05 | – | –
2 | CCc1cc(C=C2CCCC(=Cc3cc(CC)c(O)c(CC)c3)C2=O)cc(CC)c1O [HGV-2] | – | – | – | – | 20 | 1970
3 | COc1cc(/C=C2/CCC/C(=C/c3cc(OC)c(O)c(OC)c3)C2=O)cc(OC)c1O [HGV-5] | – | – | – | – | 222 | 1700
4 | O=C1C(=Cc2cc(Cl)c(O)c(Cl)c2)CCCC1=Cc1cc(Cl)c(O)c(Cl)c1 [HGV-6] | 0.25 | 0.25 | 0.35 | 0.05 | 25 | –
5 | Cc1cc(/C=C2\CC/C(=C\c3cc(C)c(O)c(C)c3)C2=O)cc(C)c1O [PGV-1] | – | – | – | – | 86 | 2200
6 | CCc1cc(/C=C2\CC/C(=C\c3cc(CC)c(O)c(CC)c3)C2=O)cc(CC)c1O [PGV-2] | – | – | – | – | 80 | 2210
7 | COc1cc(/C=C2/CC/C(=C/c3cc(OC)c(O)c(OC)c3)C2=O)cc(OC)c1O [PGV-5] | – | – | – | – | 48 | 990
8 | O=C1C(=Cc2cc(Cl)c(O)c(Cl)c2)CCC1=Cc1cc(Cl)c(O)c(Cl)c1 [PGV-6] | 0.20 | 0.25 | 0.25 | 0.10 | 20 | 14900
